Earlier results, collected in patent US4537898A, “Liquid formulations of dihydropyridines” (priority 1983, dated 1985).

solubility in water: 0.2 mg per 100 ml
Compound: COCCOC(=O)C1=C(C)NC(C)=C(C(=O)OC(C)C)C1c1cccc([N+](=O)[O-])c1 (stereo not shown) [nimodipine, Nimodipine]
